We go through 5 compounds from PMC6587462 (Journal of Clinical Pharmacology, 2018).

One data set addresses T1, 5‐HT3 receptor (Homo sapiens, UniProt P46098).
T1 sequence (P46098 24-478): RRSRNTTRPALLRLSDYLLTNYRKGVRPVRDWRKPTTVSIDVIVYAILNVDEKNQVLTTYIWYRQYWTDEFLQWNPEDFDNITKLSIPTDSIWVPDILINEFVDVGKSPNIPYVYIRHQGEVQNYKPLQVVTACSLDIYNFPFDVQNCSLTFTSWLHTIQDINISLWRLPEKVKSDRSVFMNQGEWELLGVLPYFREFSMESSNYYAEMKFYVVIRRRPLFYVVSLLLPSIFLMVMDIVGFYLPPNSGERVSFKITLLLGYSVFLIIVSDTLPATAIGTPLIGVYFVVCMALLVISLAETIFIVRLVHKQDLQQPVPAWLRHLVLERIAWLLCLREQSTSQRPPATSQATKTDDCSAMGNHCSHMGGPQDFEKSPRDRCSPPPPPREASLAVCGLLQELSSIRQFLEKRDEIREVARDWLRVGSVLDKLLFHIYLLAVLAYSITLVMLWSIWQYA
The note with it: Helsinn, data on file.

For data set [1] the following is noted: after both IV and oral administration; cited from earlier work.
Data set [2] in a line: Study 4 pilot bioequivalence study, PK after single oral NEPA. In kind it is in vivo. The following applies: human, plasma.
The conditions of data set [3]: palonosetron; cited from earlier work.
In data set [4] the target is P‐glycoprotein (P‐gp) efflux transporter (Homo sapiens, UniProt P08183). The note with it: in vitro, cited from earlier work.
Chain of P‐glycoprotein (P‐gp) efflux transporter (P08183 whole entry): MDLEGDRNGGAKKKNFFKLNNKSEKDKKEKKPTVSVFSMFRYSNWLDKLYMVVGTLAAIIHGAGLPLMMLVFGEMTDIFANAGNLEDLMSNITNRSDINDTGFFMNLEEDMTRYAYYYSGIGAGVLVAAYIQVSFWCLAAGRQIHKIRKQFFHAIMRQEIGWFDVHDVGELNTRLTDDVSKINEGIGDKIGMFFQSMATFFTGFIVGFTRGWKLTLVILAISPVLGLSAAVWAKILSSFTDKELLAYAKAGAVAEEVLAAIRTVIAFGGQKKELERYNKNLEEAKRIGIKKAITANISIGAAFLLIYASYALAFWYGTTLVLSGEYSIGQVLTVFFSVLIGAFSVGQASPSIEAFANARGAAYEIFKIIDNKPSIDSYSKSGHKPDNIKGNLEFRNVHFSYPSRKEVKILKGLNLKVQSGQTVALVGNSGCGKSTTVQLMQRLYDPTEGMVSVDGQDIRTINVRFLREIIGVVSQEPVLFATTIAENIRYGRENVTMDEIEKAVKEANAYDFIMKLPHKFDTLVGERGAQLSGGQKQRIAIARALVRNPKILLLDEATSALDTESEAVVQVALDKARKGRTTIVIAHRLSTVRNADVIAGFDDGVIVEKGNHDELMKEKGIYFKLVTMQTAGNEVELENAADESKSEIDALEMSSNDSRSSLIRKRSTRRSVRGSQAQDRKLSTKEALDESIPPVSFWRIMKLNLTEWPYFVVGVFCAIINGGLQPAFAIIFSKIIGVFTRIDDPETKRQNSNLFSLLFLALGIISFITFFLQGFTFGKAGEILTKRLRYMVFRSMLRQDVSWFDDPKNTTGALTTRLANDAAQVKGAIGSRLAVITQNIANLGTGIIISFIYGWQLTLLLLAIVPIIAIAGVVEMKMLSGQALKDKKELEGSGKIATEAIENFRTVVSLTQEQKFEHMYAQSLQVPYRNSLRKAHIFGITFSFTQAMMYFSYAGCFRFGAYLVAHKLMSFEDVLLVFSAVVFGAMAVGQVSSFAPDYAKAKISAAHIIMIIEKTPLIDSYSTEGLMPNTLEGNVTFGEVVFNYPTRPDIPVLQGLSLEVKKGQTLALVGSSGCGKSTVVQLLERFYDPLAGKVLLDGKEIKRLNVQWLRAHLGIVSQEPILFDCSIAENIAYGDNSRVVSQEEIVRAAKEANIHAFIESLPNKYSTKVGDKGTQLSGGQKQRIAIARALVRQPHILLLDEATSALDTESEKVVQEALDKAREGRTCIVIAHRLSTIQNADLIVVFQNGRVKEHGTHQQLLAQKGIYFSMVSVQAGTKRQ
A further data set addresses NK1 receptor (Homo sapiens, UniProt P25103). The following applies: NG108-15 cells; netupitant and palonosetron combined; cited from earlier work.
A short description of data set [5]: Binding to plasma proteins. In kind it is in vitro ADME. The note with it: human, plasma.
In the next data set the test system is plasma proteins. Description: Binding to plasma proteins. The data set is classed as in vitro ADME.
The conditions of data set [6]: cited from earlier work.
Details of data set [7]: species or system human. The following applies: estimated from t1/2.
Data set [8] is described as follows: clinical. The note with it: human, in vivo, po.
Data set [9] in a line: Apical-to-basolateral permeability in MDCK II monolayer. In kind it is in vitro ADME, canine. The following applies: dog.
Data set [10] is described as follows: Absolute / oral bioavailability. In kind it is in vivo. The following applies: human, plasma, po.
Data set [11] is described as follows: clinical. The following applies: human, in vivo.
The conditions of data set [12]: absorption, binding, metabolic, or excretory level; cited from earlier work.
A short description of data set [13]: Study 12 PK/safety and DDI study in cancer patients. The data set is classed as in vivo. The note with it: human, plasma, oral.
Data set [14] in a line: Biopharmaceutics Classification System class and solubility in water. In kind it is physicochemical.
Data set [15] can be described thus: Study 11 population PK/pharmacodynamic study in cancer patients. In kind it is in vivo, human. The following applies: population PK modeling in patients.
Data set [16] can be described thus: Study 9 replicate crossover bioequivalence study. In kind it is in vivo, human.
Data set [17] in a line: Study 5 bioequivalence study, PK after single oral NEPA. In kind it is in vivo, human.
The conditions of data set [18]: cited from earlier work. The source holds these as a separate data set.
For data set [19] the following is noted: calculated logP; cited from earlier work.
The next data set has as its system NG108‐15 cells. The following applies: netupitant and palonosetron combined; cited from earlier work.
Data set [20] is described as follows: Oral NEPA PK in cancer patients, summary across studies. In kind it is in vivo. The following applies: human, plasma.
The conditions of data set [21]: Study 11 population PK, patients (117), NEPA FDC, cited from earlier work.
The test system of the next data set is CYP450 isoforms. The note with it: palonosetron; cited from earlier work.
The conditions of data set [22]: cited from earlier work; for AUCinf / CL/F / Cmax / Tmax / Vz/F / t1/2: Study 8, healthy volunteers (22), NEPA FDC, mean (CV%).
The conditions of data set [23]: cited from earlier work. The source holds these as a separate data set.

Entries after “also recorded” stand apart in the source; their conditions may differ. Read-outs that look alike come from different tables or passages of the source.

Chain of NK1 receptor (P25103 whole entry, species assumed): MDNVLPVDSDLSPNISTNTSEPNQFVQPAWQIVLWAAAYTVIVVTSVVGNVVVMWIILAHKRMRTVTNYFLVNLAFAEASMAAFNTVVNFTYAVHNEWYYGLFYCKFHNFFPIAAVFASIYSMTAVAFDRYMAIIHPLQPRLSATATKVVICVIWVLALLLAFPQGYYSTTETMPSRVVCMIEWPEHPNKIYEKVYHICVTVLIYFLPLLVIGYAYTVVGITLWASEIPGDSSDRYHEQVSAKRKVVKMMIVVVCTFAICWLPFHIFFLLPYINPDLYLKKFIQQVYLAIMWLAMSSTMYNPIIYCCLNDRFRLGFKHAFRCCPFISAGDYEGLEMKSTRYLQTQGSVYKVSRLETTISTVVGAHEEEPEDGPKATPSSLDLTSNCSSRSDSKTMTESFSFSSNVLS

Turning to `O=C1c2cccc3c2[C@H](CCC3)CN1[C@@H]1C[N+]2([O-])CCC1CC2` [M9, N‐oxide‐palonosetron], at 5‐HT3 receptor, the “5-HT3 receptor antagonist activity relative to palonosetron” value is on record as < 1%. In data set [1], the “fraction of administered palonosetron dose found in urine” value is “approximately 13%”.

Turning to `O=C1c2cccc3c2[C@H](CCC3)CN1[C@@H]1CN2CCC1CC2` [palonosetron], the Tmax in [2] was 4.19 h; in the data set “clinical [8]”, 3.76 to 4.96 h; in data set [16] (human, plasma, oral), 3.76 h; in [17] (human, plasma, po) it was 4.68 h; in data set [20], 3.01 to 5.33 h; in data set [21] (mean (CV%)), 3.01 (66.4) h. For the same compound, the Tmax in data set [22] (fasted) is given as 4.34 (19.6) h; in data set [22] (fed), 4.96 (24.3) h. Moreover, the Vd/F in data set [2] is 658 L; in the data set “clinical [8]” it was 575 to 962 L; in data set [13], 633 to 679 L; in data set [16] (human, plasma, oral), 575 L; in data set [17] (human, plasma, po), 586 L; in data set [20], 483 to 679 L. Also, the half-life is 2530 min in data set [2]; 2210 to 2900 min in the data set “clinical [8]”; 2230 min in [16] (human, plasma, oral); 2650 min in data set [17] (human, plasma, po). Also, in data set [3], the solubility in water result is “freely soluble”. Besides, the “substrate of P-gp (MDR1/P-gp) efflux transporter” value in [4] is reported as “P‐gp substrate”. Moreover, the “inhibitor of P-gp efflux transporter” value in data set [4] (parent drugs) was “not an inhibitor; also recorded: not a P‐gp inhibitor”. The “combined effect on triggering NK1 receptor internalization” value on NK1 receptor is on record as “additive effects”. In addition, in [5], the unbound share (fraction unbound) came out at 0.38. In addition, the “binding to plasma proteins” value in the data set with plasma proteins is on record as 62%. The “effect of coadministration of metoclopramide or aprepitant on pharmacokinetics” value in [6] is reported as “did not alter”. Further, the “fraction from previous NEPA administration eliminated at next dose” value in data set [7] (chemotherapy every 2 weeks) is “more than 99%”; in data set [7] (chemotherapy every 3 weeks), 100%. Further, the AUC(0-inf) in the data set “clinical [8]” was 33.2 to 56.7 ng·h/mL; in data set [16] (human, plasma, oral), 48.2 ng·h/mL; in data set [17] (human, plasma, po) it was 56.7 ng·h/mL; in [20], 48.1 to 85.6 ng·h/mL. The Cmax in “clinical [8]” was 0.768 to 1.53 ng/mL; in data set [16] (human, plasma, oral), 1.27 ng/mL; in [17] (human, plasma, po), 1.53 ng/mL; in data set [20], 0.85 to 1.38 ng/mL; in [21] (mean (CV%)), 1.378 (28.3) ng/mL; in data set [22] (fasted), 0.786 (28.4) ng/mL. Further, the Cmax in data set [22] (fed) is given as 0.768 (20.7) ng/mL. In addition, the apparent permeability from apical to basolateral (Papp A→B) at 0.5 μM in [9] worked out at 16 ×10⁻⁶ cm/s. The same compound returned a Papp A→B at 50 μM in data set [9] of 65 ×10⁻⁶ cm/s. Moreover, the bioavailability in data set [10] is ~100%. Also, the CL renal in “clinical [11]” was 89.8 mL/min. In data set [12], the “PK interaction between netupitant and palonosetron” value is “no relevant PK interactions”. Further, the CL/F (Healthy volunteers, Min-Max of study means, single oral NEPA) fell in the range of 9.6 to 17.9 L/h; the CL/F in data set [16] (Study 9, healthy volunteers (82), NEPA FDC commercial product, mean (CV%)) was 11.1 (27.6) L/h; the CL/F in data set [17] (Study 5, healthy volunteers (47), single oral NEPA FDC, mean (CV%)) is listed as 9.6 (28.3) L/h; the CL/F in data set [21] (value (%RSE)) is 7.6 (%RSE = 3.64) L/h; the CL/F in data set [22] (fasted) is given as 17.9 (34.1) L/h; the CL/F in data set [22] (fed) is recorded as 17.8 (28.0) L/h. Where the note is “at 3 hours after oral NEPA”, the “plasma concentration as fraction of mean Cmax” value is reported as “approximately 80%”. Besides, in [14], the “Biopharmaceutics Classification System class” value was found to be 1. Besides, in data set [15], the absorption lag time worked out at 0.79 h. In data set [15], the absorption rate constant is 2.66 h⁻¹. For the same compound, the t1/2 in data set [18] (cancer patients, intravenous single dose) was 49.8 h; in data set [18] (healthy subjects, intravenous single dose) it was 37.4 h; in data set [22] (fasted), 36.9 (23.6) h; in data set [22] (fed), 38.9 (29.1) h. Further, in [19], the “octanol-water partition coefficient (logP)” value was 2.72. In addition, the “combined effect on inhibition of substance P-mediated response” value with NG108‐15 cells was “synergistic effects”. For the same compound, the values for the AUCinf in data set [21] (mean (CV%)), in data set [22] (fasted) and in [22] (fed) were 68.611 (33.4) ng ⋅ h/mL, 33.645 (26.7) ng ⋅ h/mL and 33.199 (20.9) ng ⋅ h/mL, respectively. In addition, the “CYP isoforms mediating metabolism” value with CYP450 isoforms was “primarily metabolized by CYP2D6 and to a lesser extent by CYP3A4 and CYP1A2”. Further, the results for the Vz/F in data set [22] (fasted) and in [22] (fed) were 905 (20.7) L and 962 (24.5) L, respectively. The “AUCinf and Cmax under fed (high-fat breakfast) vs fasting conditions” value in [22] (open, randomized, 2-way crossover study in healthy volunteers) is “similar”. For the same compound, the “fraction of administered palonosetron dose found in urine” value in data set [1] is “approximately 40%”.

Regarding `C[C@@H](OC[C@@]1(c2ccccc2)CC[C@]2(CCC(=O)N2)CN1)c1cc(C(F)(F)F)cc(C(F)(F)F)c1` [rolapitant], in [23], the “adverse reactions on intravenous administration” value was “injection‐site reactions”. The t1/2 result in data set [18] was “approximately 180 hours”.

For the compound `C[C@@H](O[C@H]1OCCN(Cc2nc(O)n(P(=O)(O)O)n2)[C@H]1c1ccc(F)cc1)c1cc(C(F)(F)F)cc(C(F)(F)F)c1` [fosaprepitant], in data set [23], the “adverse reactions on intravenous administration” value is “injection‐site reactions”.

Regarding `O=C1c2cccc3c2[C@H](CC[C@@H]3O)CN1[C@@H]1CN2CCC1CC2` [6‐S‐hydroxy‐palonosetron], on 5‐HT3 receptor, the “5-HT3 receptor antagonist activity relative to palonosetron” value was < 1%.
